Measured values reported in PubChem BioAssay AID220 (DTP/NCI, 2004).
Several values for one entry are separate records, joined by “and”; a condition that tells them apart may be missing. Equal entries are not always repeated. Results filed as inconclusive are left out.

Test system: CD8F1 mice, subcutaneous mammary adenocarcinoma, T/C%
Test: NCI In Vivo Anticancer Drug Screen. Data for tumor model Mammary Adenocarcinoma CD8F1 (subcutaneous) in CD8F1
Conditions: higher = larger tumour
Method: The antitumor activity of compounds was measured in mice bearing transplantable tumors. Survival or tumor size were measured and the results are expressed as the measurement made in the treated group (T) divided by the measurement made in the vehicle treated control group (C). The tumor model used in this assay is Mammary Adenocarcinoma CD8F1 (subcutaneous) in CD8F1

[1] = endpoint: median tumor weight change, dose: 62.5 mg/kg/injection, schedule: Q01DX001 (ip), vehicle: saline with Tween-80
[2] = endpoint: median tumor weight change, dose: 125.0 mg/kg/injection, schedule: Q01DX001 (ip), vehicle: saline with Tween-80
[3] = endpoint: median tumor weight change, dose: 500.0 mg/kg/injection, schedule: Q01DX001 (ip), vehicle: saline with Tween-80
[4] = endpoint: median tumor weight change, dose: 125.0 mg/kg/injection, schedule: Q01DX001 (ip), vehicle: Klucel (hydroxypropylcellulose) (HPC)
[5] = endpoint: median tumor weight change, dose: 250.0 mg/kg/injection, schedule: Q01DX001 (ip), vehicle: Klucel (hydroxypropylcellulose) (HPC)
[6] = endpoint: median tumor weight (est.), dose: 2.0 mg/kg/injection, schedule: Q07DX005 (ip), vehicle: saline
[7] = endpoint: median tumor weight (est.), dose: 4.0 mg/kg/injection, schedule: Q07DX005 (ip), vehicle: saline
[8] = endpoint: median tumor weight (est.), dose: 8.0 mg/kg/injection, schedule: Q07DX005 (ip), vehicle: saline
[9] = endpoint: median tumor weight (est.), dose: 16.0 mg/kg/injection, schedule: Q07DX005 (ip), vehicle: saline
[10] = endpoint: median tumor weight (est.), dose: 0.5 mg/kg/injection, schedule: Q07DX005 (ip), vehicle: saline
[11] = endpoint: median tumor weight (est.), dose: 1.0 mg/kg/injection, schedule: Q07DX005 (ip), vehicle: saline

Nc1ccc(S(=O)(=O)c2ccc(N)cc2)cc1
T/C (endpoint: median tumor weight change, dose: 31.25 mg/kg/injection, schedule: Q01DX001 (ip), vehicle: saline with Tween-80): 106 % of control
T/C [1]: 92 % of control
T/C [2]: 87 % of control
T/C (endpoint: median tumor weight change, dose: 250.0 mg/kg/injection, schedule: Q01DX001 (ip), vehicle: saline with Tween-80): 88 % of control
T/C [3]: 80 % of control

Oc1c(Cl)cc(Cl)cc1C=NCCSc1ccc(Cl)cc1
T/C (endpoint: median tumor weight change, dose: 62.5 mg/kg/injection, schedule: Q01DX001 (ip), vehicle: Klucel (hydroxypropylcellulose) (HPC)): 99 % of control and 100 % of control
T/C [4]: 89 % of control and 104 % of control
T/C [5]: 87 % of control and 103 % of control

Nc1cccc(=O)[nH]1
T/C (endpoint: median tumor weight (est.), dose: 50.0 mg/kg/injection, schedule: Q07DX005 (ip), vehicle: saline): 21 % of control
T/C (endpoint: median tumor weight (est.), dose: 100.0 mg/kg/injection, schedule: Q07DX005 (ip), vehicle: saline): 68 % of control
T/C (endpoint: median tumor weight (est.), dose: 200.0 mg/kg/injection, schedule: Q07DX005 (ip), vehicle: saline): 70 % of control
T/C (endpoint: median tumor weight (est.), dose: 400.0 mg/kg/injection, schedule: Q07DX005 (ip), vehicle: saline): 96 % of control and 100 % of control
T/C (endpoint: median tumor weight (est.), dose: 400.0 mg/kg/injection, schedule: Q07DX005 (ip), vehicle: suspension in saline): 47 % of control
T/C (endpoint: median tumor weight (est.), dose: 800.0 mg/kg/injection, schedule: Q07DX005 (ip), vehicle: saline): 78 % of control
T/C (endpoint: median tumor weight (est.), dose: 800.0 mg/kg/injection, schedule: Q07DX005 (ip), vehicle: suspension in saline): 56 % of control
T/C (endpoint: median tumor weight (est.), dose: 1600.0 mg/kg/injection, schedule: Q07DX005 (ip), vehicle: suspension in saline): 59 % of control
T/C (endpoint: median tumor weight change, dose: 62.5 mg/kg/injection, schedule: Q01DX001 (ip), vehicle: saline): 55 % of control
T/C (endpoint: median tumor weight change, dose: 125.0 mg/kg/injection, schedule: Q01DX001 (ip), vehicle: saline): 78 % of control
T/C (endpoint: median tumor weight change, dose: 250.0 mg/kg/injection, schedule: Q01DX001 (ip), vehicle: saline): 90 % of control
T/C (endpoint: median tumor weight change, dose: 500.0 mg/kg/injection, schedule: Q01DX001 (ip), vehicle: saline): 72 % of control
T/C (endpoint: median tumor weight change, dose: 1000.0 mg/kg/injection, schedule: Q01DX001 (ip), vehicle: saline): 70 % of control

COc1ccc2[nH]c3c(c2c1)CCNC3CC(C)CCC=C(C)C (configuration not stated)
T/C (endpoint: median tumor weight change, dose: 15.62 mg/kg/injection, schedule: Q01DX001 (ip), vehicle: Klucel (hydroxypropylcellulose) (HPC)): 118 % of control
T/C (endpoint: median tumor weight change, dose: 25.0 mg/kg/injection, schedule: Q01DX001 (ip), vehicle: Klucel (hydroxypropylcellulose) (HPC)): 100 % of control
T/C (endpoint: median tumor weight change, dose: 31.25 mg/kg/injection, schedule: Q01DX001 (ip), vehicle: Klucel (hydroxypropylcellulose) (HPC)): 197 % of control
T/C (endpoint: median tumor weight change, dose: 50.0 mg/kg/injection, schedule: Q01DX001 (ip), vehicle: Klucel (hydroxypropylcellulose) (HPC)): 64 % of control
T/C (endpoint: median tumor weight change, dose: 100.0 mg/kg/injection, schedule: Q01DX001 (ip), vehicle: Klucel (hydroxypropylcellulose) (HPC)): 51 % of control
T/C [4]: 159 % of control

Cn1c2ccccc2c2ccc3c(c21)C(=O)C=CC3=O
T/C [1]: 38 % of control

COc1cc([C@@H]2c3cc4c(c(O)c3C[C@H]3COC(=O)[C@@H]32)OCO4)cc(OC)c1OC
T/C [6]: 45 % of control
T/C [7]: 222 % of control
T/C [8]: 86 % of control
T/C [9]: 96 % of control

O=C1c2ccccc2C(=O)c2c(NCCNCCO)ccc(O)c21
T/C (endpoint: median tumor weight change, dose: 25.0 mg/kg/injection, schedule: Q01DX001 (ip), vehicle: saline with Tween-80): 91 % of control
T/C (endpoint: median tumor weight change, dose: 50.0 mg/kg/injection, schedule: Q01DX001 (ip), vehicle: saline with Tween-80): 44 % of control
T/C (endpoint: median tumor weight change, dose: 100.0 mg/kg/injection, schedule: Q01DX001 (ip), vehicle: saline with Tween-80): 41 % of control
T/C (endpoint: median tumor weight change, dose: 200.0 mg/kg/injection, schedule: Q01DX001 (ip), vehicle: saline with Tween-80): 33 % of control

CN1C(=O)C(=Cc2ccc(O)cc2)C(=O)N(C)C1=O
T/C [2]: 94 % of control
T/C [3]: 165 % of control

N/C(=N\O)c1cn(C2OC(CO)C(O)C2O)c2ncnc(N)c12 (configuration not stated)
T/C [7]: 100 % of control
T/C [8]: 112 % of control

CC[C@]1(O)C[C@H]2CN(CCc3c([nH]c4ccccc34)[C@@](C(=O)OC)(c3cc4c(cc3OC)N(C=O)[C@H]3[C@@](O)(C(=O)OC)[C@H](OC(C)=O)[C@]5(CC)C=CCN6CC[C@]43[C@@H]65)C2)C1
T/C (endpoint: mean tumor weight, dose: 0.07 mg/kg/injection, schedule: Q01DX009 (ip), vehicle: saline): 180 % of control
T/C (endpoint: mean tumor weight, dose: 0.15 mg/kg/injection, schedule: Q01DX009 (ip), vehicle: saline): 123 % of control
T/C (endpoint: mean tumor weight, dose: 0.3 mg/kg/injection, schedule: Q01DX009 (ip), vehicle: saline): 54 % of control
T/C (endpoint: mean tumor weight, dose: 0.5 mg/kg/injection, schedule: Q07DX006 (ip), vehicle: saline): 49 % of control
T/C (endpoint: mean tumor weight, dose: 1.0 mg/kg/injection, schedule: Q07DX006 (ip), vehicle: saline): 71 % of control
T/C (endpoint: mean tumor weight, dose: 2.0 mg/kg/injection, schedule: Q07DX006 (ip), vehicle: saline): 12 % of control
T/C (endpoint: median tumor weight (est.), dose: 0.13 mg/kg/injection, schedule: Q01DX005 (ip), vehicle: saline): 56 % of control
T/C (endpoint: median tumor weight (est.), dose: 0.19 mg/kg/injection, schedule: Q01DX005 (ip), vehicle: saline): 73 % of control
T/C (endpoint: median tumor weight (est.), dose: 0.25 mg/kg/injection, schedule: Q07DX005 (ip), vehicle: saline): 64 % of control and 73 % of control and 84 % of control
T/C (endpoint: median tumor weight (est.), dose: 0.28 mg/kg/injection, schedule: Q01DX005 (ip), vehicle: saline): 105 % of control
T/C [10]: 39 % of control and 43 % of control and 45 % of control
T/C (endpoint: median tumor weight (est.), dose: 0.95 mg/kg/injection, schedule: Q07DX005 (ip), vehicle: saline): 29 % of control
T/C [11]: 6 % of control
T/C (endpoint: median tumor weight (est.), dose: 1.4 mg/kg/injection, schedule: Q04DX005 (ip), vehicle: saline): 6 % of control
T/C (endpoint: median tumor weight (est.), dose: 1.4 mg/kg/injection, schedule: Q07DX005 (ip), vehicle: saline): 8 % of control
T/C [6]: 1 % of control

CN(CO)c1nc(N(C)CO)nc(N(C)CO)n1
T/C [10]: 56 % of control
T/C [11]: 78 % of control
T/C [6]: 110 % of control
T/C [7]: 48 % of control
T/C (endpoint: median tumor weight (est.), dose: 6.25 mg/kg/injection, schedule: Q07DX005 (ip), vehicle: saline with Tween-80): 92 % of control
T/C [8]: 46 % of control
T/C (endpoint: median tumor weight (est.), dose: 12.5 mg/kg/injection, schedule: Q07DX005 (ip), vehicle: saline with Tween-80): 116 % of control
T/C (endpoint: median tumor weight (est.), dose: 12.5 mg/kg/injection, schedule: Q07DX006 (ip), vehicle: saline): 288 % of control
T/C [9]: 14 % of control
T/C (endpoint: median tumor weight (est.), dose: 25.0 mg/kg/injection, schedule: Q07DX006 (ip), vehicle: saline): 42 % of control
T/C (endpoint: median tumor weight (est.), dose: 50.0 mg/kg/injection, schedule: Q07DX005 (ip), vehicle: saline with Tween-80): 94 % of control
T/C (endpoint: median tumor weight (est.), dose: 50.0 mg/kg/injection, schedule: Q07DX006 (ip), vehicle: saline): 40 % of control
T/C (endpoint: median tumor weight (est.), dose: 100.0 mg/kg/injection, schedule: Q07DX005 (ip), vehicle: saline with Tween-80): 25 % of control
T/C (endpoint: median tumor weight (est.), dose: 100.0 mg/kg/injection, schedule: Q07DX006 (ip), vehicle: saline): 35 % of control
T/C (endpoint: median tumor weight (est.), dose: 200.0 mg/kg/injection, schedule: Q07DX005 (ip), vehicle: saline with Tween-80): 31 % of control
T/C (endpoint: median tumor weight (est.), dose: 200.0 mg/kg/injection, schedule: Q07DX006 (ip), vehicle: saline): 5 % of control

CC(=O)NC(CCc1ccc(Cl)c(Cl)c1)c1cccc(O)c(=O)c1 (configuration not stated)
T/C (endpoint: median tumor weight change, dose: 31.0 mg/kg/injection, schedule: Q01DX001 (ip), vehicle: Klucel (hydroxypropylcellulose) (HPC)): 114 % of control
T/C (endpoint: median tumor weight change, dose: 62.0 mg/kg/injection, schedule: Q01DX001 (ip), vehicle: Klucel (hydroxypropylcellulose) (HPC)): 99 % of control
T/C [4]: 165 % of control
T/C [5]: 88 % of control
T/C (endpoint: median tumor weight change, dose: 500.0 mg/kg/injection, schedule: Q01DX001 (ip), vehicle: Klucel (hydroxypropylcellulose) (HPC)): 88 % of control

CCS/C(SC)=C(/c1ccccc1)[P+](c1ccccc1)(c1ccccc1)c1ccccc1
T/C (endpoint: median tumor weight change, dose: 0.5 mg/kg/injection, schedule: Q01DX001 (ip), vehicle: Klucel (hydroxypropylcellulose) (HPC)): 159 % of control
T/C (endpoint: median tumor weight change, dose: 1.0 mg/kg/injection, schedule: Q01DX001 (ip), vehicle: Klucel (hydroxypropylcellulose) (HPC)): 100 % of control
T/C (endpoint: median tumor weight change, dose: 2.0 mg/kg/injection, schedule: Q01DX001 (ip), vehicle: Klucel (hydroxypropylcellulose) (HPC)): 114 % of control
T/C (endpoint: median tumor weight change, dose: 4.0 mg/kg/injection, schedule: Q01DX001 (ip), vehicle: Klucel (hydroxypropylcellulose) (HPC)): 81 % of control
T/C (endpoint: median tumor weight change, dose: 8.0 mg/kg/injection, schedule: Q01DX001 (ip), vehicle: Klucel (hydroxypropylcellulose) (HPC)): 43 % of control
